Paper PMC5870190, “A three-in-one-bullet for oesophageal cancer: replication fork collapse, spindle attachment failure and enhanced radiosensitivity generated by a ruthenium(II) metallo-intercalator” (Chemical Science, 2017)

Experiments:
[1] = system: OE33 human oesophageal adenocarcinoma; assay: MTT assay, OE33 cells; format: cell-based
Description: MTT assay. OE21, FLO-1 or hSAEC1-KT cells were seeded in 96 well plates at 20,000 cells/well (for 24 h treatment) or 10,000 cells/well (for 72 h treatment) and allowed to adhere for 24 h before treatment. OE33 cells were seeded in 48 well plates at 40,000 cells/well (24 h treatment) or 20,000 cells/well (72 h treatment). Cancer cell lines were treated with chemicals dissolved in RPMI media for consistency. After incubation, 0.5 mg/ml MTT (thiazolyl blue tetrazolium bromide) dissolved in serum-free medium was added for 60 minutes and the formazan product eluted using acidified isopropanol.
The absorbance at 540 nm was quantified by plate reader (reference wavelength 650 nm). The metabolic activity of the cell population was determined as a percentage of a negative (solvent) control. […]
(§1) For the determination of mutation induction, from the untreated and each treated condition, 2x10^5 cells were plated in 10 x 100 mm dishes in selective media (regular media

MCF7 cells = assay: Micronuclei formation, MCF7; format: cell-based; details: MCF7, 40 μM Ru1, 24 h incubation
Description: Microscopy and immunofluorescence. Cells were seeded on ibidi 35 mm µ-dishes (Thistle Scientific), allowed to adhere for 24 h and treated as stated in the main text. Cell media was removed, cells washed with PBS and fixed with formaldehyde (4%, 10 mins). Cells were permeablised with Triton (0.5% in PBS, 5 mins) and washed with PBS. Samples were blocked with BSA (3% in PBS-T) for 1 h before incubation with primary antibody (either anti-α-tubulin or anti-γ H2AX, 1/500 dilution) in BSA (3% in PBS-T) for 1 h. Samples were washed 3x in PBS-T and incubated with Alexa Fluor-conjugated secondary antibodies (3% in PBS-T, 1 h, 1/250 dilution). After further washing (3x5 min PBS-T) samples were co-stained with DAPI (5 ng/ml, 2 min), fresh PBS added and visualised by confocal microscopy. Samples were visualised using a Zeiss LSM 780 or LSM 710 inverted confocal microscope and EC Plan-Neofluar 40x/1.30 Oil objectives. […]
as §1

OE21 cells [2] = assay: Cell-cycle analysis by flow cytometry; format: cell-based, human; details: OE21, 20 μM, 24 h
Description: (§2) phototoxic contribution to bio-activity. Doxorubicin (Sigma) was prepared in doubly-distilled water (10 mg/mL, 17.4 mM).
(§3) [Ru(phen)2(dppz)]2+ (2 mM) was prepared in doubly-distilled water.
(§4) Sub-cellular fractionation. OE21 or OE33 cells were treated in 12 well plates, washed with cold PBS (2x2 mls) and nuclear and cytosol fractions obtained using the Nuclei EZ Lysis kit (Sigma). Briefly, cells were washed with acidified PBS (pH 2.5) to remove the membrane-bound fraction and 0.4 ml EZ lysis buffer was added. Cells were detached by scraping, collected into eppendorfs, vortexed briefly and left for 5 minutes on ice. Samples were centrifuged (500g, 5 mins) and the supernatant (cytosol fraction) aspirated. The pellet (nuclear fraction) was re-suspended in 200 µl RIPA buffer. […] Ruthenium content was determined by ICP-MS analysis as described in a recent […]
(§5) DNA fibre assay. […] CldU- and IdU-labelled tracts were visualised using a Leica DMRB microscope with a DFC360FX camera and tract length measured by ImageJ software. […]
(§6) Western blotting. […] Protein content was determined by BCA assay. […]
(§7) AnnexinV staining. […] This was incubated for 15 mins at room temperature, 400 µl binding buffer added and analysed by flow cytometry (FL1 and FL3 channels for FITC and PI respectively). […]

[3] = cited from earlier work
OE21 cells [4] = assay: Apoptosis (AnnexinV staining, karyorrhexis, cleaved caspase 3); format: cell-based, human; details: OE21, 21 μM, 24 h
Description: as §2, §3, §4, §5, §6, §7

Substance: [Ru(phen)2(tpphz)]^2+ [Ru1]
- IC50 ([1]; OE33, 24 h constant exposure): 44.5 ± 3.5 µM
- IC50 ([1]; OE33, 72 h constant exposure): 27 ± 2.8 µM
- Cells with micronuclei, Percentage (MCF7 cells): 6.2%
- increase in G2/M phase cells compared to control (OE21 cells [2]): two-fold
- log P [3]: –1.24
- apoptosis (OE21 cells [4]): low levels of apoptosis
